US9920096B2, “Bradykinin receptor modulators and use thereof” (Sepia Pesquisa e Desenvolvimento, priority 2013, dated 2018)

Tests used:
[1] = system: Human umbilical vein endothelial cells (HUVEC); experiment: In vitro angiogenesis assay on Matrigel (HUVEC); assay type: cell-based
Protocol: The angiogenesis assay was performed according to the protocol described in Paschoalin T, et al (2007).
Human umbilical vein endothelial cells (HUVEC) were maintained in complete RPMI 1640 medium, pH 7.2, supplemented with 10 mM N-2-hydroxyethylpiperazine-N′-2-ethanesulphonic acid (HEPES), 24 mM sodium bicarbonate, 10% heat-inactivated fetal calf serum (FCS) from Gibco (Minneapolis, Minn., USA) and 40 μg/mL gentamicin sulfate (Hipolabor Farmacéutica, Sabará, MG, Brazil).
In vitro angiogenesis assay on Matrigel was performed as described previously (Paschoalin et al, 2007). Briefly, BD Matrigel Matrix (B&D Biosciences, Bedford, Mass., USA) was thawed on ice, distributed in 96-well plates (50 μL per well) and allowed to polymerize for 1 h at 37° C. HUVECs (15×10^3 cells/well) were suspended in 100 μL of RPMI medium supplemented with 2% of FCS and added to each well in the presence of peptides with possible angiogenic activity. Angiogenic stimulators and inhibitors can be incubated with the cells before adding on the Matrigel if necessary. The plates were incubated at 37° C. for 18 h and then images were captured at 8× magnification with a Sony Cyber-shot camera coupled to a light inverted microscope. The number of pro-angiogenic structures (closed rings arising from dendritic extensions of endothelial cells) was counted from 4 different wells, and the average value was determined for each sample.
When stimulated by angiogenic factors, like BK, HUVEC cells undergo the development of pro-angiogenic structures and it allows studying angiogenic or anti-angiogenic molecules. The number of pro-angiogenic structures is counted and compared to a control and to BK. Generally, peptides of the invention derived from VEGF-A were named PepA, peptides from VEGF-C were named PepC, peptides from VEGF-D were named PepD and peptides from Placental Growth Factor were named PepPl.
* p<0.05, Student's “t” test, when comparing the mean number of pro-angiogenic structures from […] different wells of HUVEC cultures to the control.

[2] = system: HUVEC cells; experiment: Intracellular calcium measurement in HUVEC cells (Fluo-3 fluorescence); assay type: cell-based, Human; settings: for Bradykinin receptor activity indicated by calcium entry data: FIG. 5A-E, with and without B1/B2 antagonists
Protocol: The intracellular calcium measurement was performed according to the method described in Bagnaresi P et al, 2012 and Lungato L, et al., 2012.
Human umbilical vein endothelial cells were cultured in RPMI 1640 (GIBCO) containing 10% heat-inactivated fetal bovine serum (FBS), 24 mM sodium bicarbonate, […] gentamicin, 10 mM HEPES, pH 7.4 at 37° C. in a 5% CO2 humidified atmosphere. 5×10^4 cells were plated on 60 mm dishes (Costar 3260), and incubated in culture medium containing 5 μM Fluo-3 AM (Invitrogen Corporation, CA) for 40 min at 37° C. in a buffer containing the channel blocker Probenecid (40 μM), followed by 3 washes with culture medium to discard remaining extracellular probe. The cells were then placed into a culture chamber at 37° C. on the stage of a fluorescence microscope (Zeiss LSM 510 META) with excitation at 488 nm and emission at 505-530 nm. After calcium probe incubation, assays were performed with 1 uM bradykinin (BK), 10 uM PepD 2-10.
Fluorescence data were normalized as F/Fmax, where Fmax represents maximal intracellular fluorescence obtained with Ca2+ released from ER with addition of THG, a Ca2+ATPase inhibitor (Bagnaresi et al. 2012). THG blocks calcium pumps that recover cytosolic calcium from the cytoplasm. Under the action of THG the cytosolic calcium reaches its maximal concentration.
The software-based analysis allowed fluorescence imaging in the whole field or in a selected cell as a function of time (Image J 1.47h, NIH, USA). This was accomplished by defining areas of interest (e.g., an entire cell) on a given image frame and directing the software to construct a graphical representation of intensity over time (GraphPad Software 6 Prisma). Individual traces for typical 15 cells responses represent the intracellular calcium fluorescence changes in the analyzed cell population (Lungato et al. 2012).

[3] = FIG. 2 and 3, peptide at 10 μM, compared to BK 1 μM and control without peptide
[4] = FIG. 4A/4B, 1 μM and 10 μM, 24 h after initial stimulus
[5] = FIG. 5E, peptide 10 μM, in the presence of B1 receptor antagonist DesArg9-Leu8-BK

Sequence: KPSCVPLM [PepA 2-9, derived from VEGF-A]
- Induction of angiogenesis in HUVEC angiogenesis assay [1, 3]: able to induce angiogenesis

Sequence: FKPPCVNVFR [PepD 1-10, derived from VEGF-D]
- Induction of angiogenesis in HUVEC angiogenesis assay [1, 3]: able to induce angiogenesis

Sequence: KPPCVNVFR [PepD 2-10, derived from VEGF-D]
- Effect on HUVEC angiogenesis assay (number of pro-angiogenic structures) ([1]; FIG. 1, tested at 1 μM, 10 μM and 50 μM, effect at 1 and 10 μM, compared to control): pro-angiogenic effect
- Induction of angiogenesis in HUVEC angiogenesis assay [1, 3]: able to induce angiogenesis
- Bradykinin receptor activity indicated by calcium entry data ([2]; peptide 10 μM): B2 agonist
- Bradykinin receptor activity indicated by calcium entry data ([2]; peptide 10 μM, listed as PepD2-10): B1 bradykinin receptor activation
- Cytoplasmic calcium in HUVEC (Fluo-3 fluorescence) ([2]; FIG. 5B, peptide 10 μM): induces an increase of cytoplasmatic calcium
- Calcium entry induced by the peptide after previous addition of B2 receptor antagonist HOE140 ([2]; FIG. 5C, HOE 140 10 μM for 10 min before peptide 10 μM): does not block calcium entry but clearly shows a disruption in the pattern of calcium increase
- Calcium entry induced by the peptide after previous addition of B1 receptor antagonist DesArg9-Leu8-BK ([2]; FIG. 5D, DesArg9-Leu8-BK 10 μM for 10 min before peptide 10 μM): completely blocks the effect of PepD 2-10

Sequence: KPPCVSVY [PepC 2-9, derived from VEGF-C]
- Induction of angiogenesis in HUVEC angiogenesis assay [1, 4]: able to induce angiogenesis

Sequence: FKPPCVNVF [PepD 1-9, derived from VEGF-D]
- Induction of angiogenesis in HUVEC angiogenesis assay [1, 3]: able to induce angiogenesis

Sequence: KPPCVSVYR [PepC 2-10, derived from VEGF-C]
- Induction of angiogenesis in HUVEC angiogenesis assay [1, 4]: able to induce angiogenesis

Sequence: FSPSCVSLLR [PepPl 1-10, derived from Placental Growth Factor]
- Cell fluorescence due to calcium entry in the cytoplasm of HUVEC [2, 5]: induces an increase in cell fluorescence
- Duration of transient fluorescence increase (cytoplasmic calcium increase) [2, 5]: around 5 minutes

Sequence: FKPPCVSVYR [PepC 1-10, derived from VEGF-C]
- Induction of angiogenesis in HUVEC angiogenesis assay ([1]; FIG. 4C, 0.1, 1.0 and 10 μM, 24 h after initial stimulus): able to induce angiogenesis

Sequence: FKPSCVPLM [PepA 1-9, derived from VEGF-A]
- Induction of angiogenesis in HUVEC angiogenesis assay [1, 3]: able to induce angiogenesis
